Experimental findings from patent publication US10975068B2, “6-aminopyridin-3-yl thiazoles as modulators of RORγT” (Janssen Pharmaceutica NV, priority 2016, dated 2021) are described below.

Where two headings read alike, the source gives them in different places. Marks after values point to notes of the source that are not given here.

Assay [1] has as its target human RORγt ligand binding domain (RORγt LBD) (Homo sapiens (Human), UniProt P51449). The assay is described as follows: RORγt ThermoFluor® assay (thermal shift binding). The settings on record: read-out: ThermoFluor® Assay, Kd. Summed up: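 His-tagged human RORγt LBD (0.065 mg/mL) with 60 μM 1,8-ANS in 100 mM Hepes pH 7.0, 10 mM NaCl, 2.5 mM GSH, 0.002% Tween-20 was heated at 1 °C/min.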
Background: In DSF a fluorescence change marks the thermal transition of the protein.

Assay [2] has as its target full-length human RORγt (Homo sapiens (Human), UniProt P51449). The assay can be described thus: RORγt (full-length human) reporter assay, Conditions B or C. The class given is cell-based. The settings on record: for RORγt (FL) Reporter Assay B or C, % inhibition (value marked *): marked *: footnote not given; for inhibition at 3 µM: read-out: RORγt (FL) Reporter Assay B or C, % inhibition. Summed up: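 HEK293T cells transiently co-transfected with GAL4-DBD–full-length human RORγt (nt 142-1635, NM_001001523.1) plus GAL4-firefly and CMV-Renilla luciferase reporters; compounds added 4-6 h post-transfection for 16-20 h in 1.3% FBS, 0.1% DMSO. Firefly signal normalized to DMSO and saturating reference compound, then to Renilla; IC50 from concentration plots.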
On the technique in general: A reporter such as luciferase makes a cellular process visible.

[3] abbreviates: Conditions B or C, read-out: RORγt (FL) Reporter Assay B or C, IC50.
Setting [4] is: read-out: RORγt (FL) Reporter Assay B or C, IC50.

Chain of human RORγt ligand binding domain (RORγt LBD) (P51449 other isoform, or with tags, fused parts or gaps): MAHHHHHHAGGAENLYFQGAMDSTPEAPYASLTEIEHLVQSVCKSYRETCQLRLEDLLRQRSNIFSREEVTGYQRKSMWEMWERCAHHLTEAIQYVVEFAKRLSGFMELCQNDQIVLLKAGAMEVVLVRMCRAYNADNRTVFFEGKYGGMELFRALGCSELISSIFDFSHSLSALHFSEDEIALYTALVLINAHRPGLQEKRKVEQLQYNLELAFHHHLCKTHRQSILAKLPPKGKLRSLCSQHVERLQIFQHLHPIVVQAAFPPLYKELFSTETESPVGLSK
Chain of full-length human RORγt (P51449 other isoform, or with tags, fused parts or gaps): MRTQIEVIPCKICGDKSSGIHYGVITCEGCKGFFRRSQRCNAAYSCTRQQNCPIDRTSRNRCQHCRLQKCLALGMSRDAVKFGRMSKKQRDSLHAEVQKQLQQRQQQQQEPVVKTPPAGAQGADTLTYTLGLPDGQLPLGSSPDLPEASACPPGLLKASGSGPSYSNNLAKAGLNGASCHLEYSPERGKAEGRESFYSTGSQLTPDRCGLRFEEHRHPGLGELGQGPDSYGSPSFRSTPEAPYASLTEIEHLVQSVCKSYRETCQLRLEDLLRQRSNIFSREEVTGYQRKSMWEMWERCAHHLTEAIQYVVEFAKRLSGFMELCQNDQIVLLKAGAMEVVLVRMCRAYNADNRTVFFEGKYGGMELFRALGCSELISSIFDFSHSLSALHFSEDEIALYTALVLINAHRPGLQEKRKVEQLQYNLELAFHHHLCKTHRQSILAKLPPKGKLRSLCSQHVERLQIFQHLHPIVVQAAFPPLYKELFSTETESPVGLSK

One may read the Kd as the constant that tells how readily two partners part at equilibrium. A word on the IC50: it is the concentration that inhibits the measured activity by half. `CC(C)(O)CNC(=O)c1nc(C(=O)N2C3CCC2CC3)c(-c2cnc(NC(C)(C)C)cc2C(F)(F)F)s1` [Example 79, 4-((1s,4s)-7-Azabicyclo[2.2.1]heptane-7-carbonyl)-5-(6-(tert-butylamino)-4-(trifluoromethyl)pyridin-3-yl)-N-(2-hydroxy-2-methylpropyl)thiazole-2-carboxamide]: the Kd in assay [1] stood at 1.2 nM. For the same molecule, in assay [2] (Conditions B or C), the “RORγt (FL) Reporter Assay B or C, % inhibition (value marked *)” value (“RORγt … % inhibition (value marked *)” below) was 111* %. For the same molecule, in assay [2] (setting [3]), the IC50 was 0.0083 µM.

As to `C[C@H](Nc1cc(C(F)F)c(-c2sc(C(=O)N[C@@H]3CCC[C@H]3O)nc2C(=O)N2C3CCC2CC3)cn1)C(F)(F)F` [Example 224, 4-((1s,4s)-7-Azabicyclo[2.2.1]heptane-7-carbonyl)-5-(4-(difluoromethyl)-6-(((1S)-2,2,2-trifluoro-1-methyl-ethyl)amino)-3-pyridyl)-N-((1R,2R)-2-hydroxycyclopentyl)thiazole-2-carboxamide], the Kd in assay [1] came to 2.7 nM. Besides, in assay [2] (Conditions B or C), the “RORγt … % inhibition (value marked *)” value is 112* %. In assay [2] (RORγt (FL) Reporter Assay B or C, IC50 (μM), Conditions B or C), this molecule had an IC50 of 0.026 µM.

The term inhibition denotes the relative decrease from the control value, in per cent. For `C[C@H]1CCCN1C(=O)c1nc(C(=O)N[C@H]2C[C@@](C)(O)C2)sc1-c1cnc(NC(C)(C)C)cc1C(F)(F)F` [Example 337, 5-[6-(tert-Butylamino)-4-(trifluoromethyl)-3-pyridyl]-N-(3-hydroxy-3-methyl-cyclobutyl)-4-[(2S)-2-methylpyrrolidine-1-carbonyl]thiazole-2-carboxamide], the Kd in assay [1] amounted to 2.9 nM. Further, in assay [2] (at 3 μM compound concentration), the inhibition at 3 µM turned out to be 105%. Also, the IC50 in assay [2] (setting [4]) was found to be 0.013 µM.

Turning to `C[C@H]1CCCN1C(=O)c1nc(C(=O)N[C@@H]2CCC[C@H]2O)sc1-c1cnc(NC(C)(C)C)cc1C(F)(F)F` [Example 351, 5-[6-(tert-Butylamino)-4-(trifluoromethyl)-3-pyridyl]-N-[(1R,2R)-2-hydroxycyclopentyl]-4-[(2S)-2-methylpyrrolidine-1-carbonyl]thiazole-2-carboxamide], the Kd in assay [1] came to 0.15 nM. In addition, the 50% inhibitory concentration (IC50) in assay [2] (setting [4]) turned out to be 0.008 µM.

Consider `C[C@H](Nc1cc(C(F)F)c(-c2sc(C(=O)N[C@H]3CCC[C@@H]3O)nc2C(=O)N2CC(F)(F)C[C@@H]2C)cn1)C(F)(F)F` [Example 418, 4-[(2S)-4,4-Difluoro-2-methyl-pyrrolidine-1-carbonyl]-5-[4-(difluoromethyl)-6-[[(1S)-2,2,2-trifluoro-1-methyl-ethyl]amino]-3-pyridyl]-N-[(1S,2S)-2-hydroxycyclopentyl]thiazole-2-carboxamide], for which the Kd in assay [1] was 0.77 nM. The inhibition at 3 µM in assay [2] (at 3 μM compound concentration) worked out at 105%. Further, in assay [2] (setting [4]), the IC50 is 0.032 µM.

Regarding `C[C@H](Nc1cc(C(F)F)c(-c2sc(C(=O)N[C@H]3C[C@H](O)C3)nc2C(=O)N2C3CCC2CC3)cn1)C(F)(F)F` [Example 221, 4-((1s,4s)-7-Azabicyclo[2.2.1]heptane-7-carbonyl)-5-(4-(difluoromethyl)-6-(((1S)-2,2,2-trifluoro-1-methyl-ethyl)amino)-3-pyridyl)-N-((1r,3S)-3-hydroxycyclobutyl)thiazole-2-carboxamide], in assay [1], the Kd was 27 nM. Also, in assay [2] (Conditions B or C), the “RORγt … % inhibition (value marked *)” value is 103* %. Moreover, the IC50 in assay [2] (setting [3]) worked out at 0.078 µM.

With `C[C@H]1CCCN1C(=O)c1nc(C(=O)NCC(C)(O)C(F)(F)F)sc1-c1cnc(NC(C)(C)C)cc1C(F)(F)F` (single isomer, unassigned) [Example 359, 5-(6-(tert-Butylamino)-4-(trifluoromethyl)pyridin-3-yl)-4-((S)-2-methylpyrrolidine-1-carbonyl)-N—((R*)-3,3,3-trifluoro-2-hydroxy-2-methylpropyl)thiazole-2-carboxamide], the Kd in assay [1] was 1.1 nM. Also, the “RORγt (FL) Reporter Assay B or C, % inhibition” value in assay [2] (at 3 μM compound concentration) was 125* %. Further, the IC50 in assay [2] (setting [4]) was 0.0076 µM.

For the molecule `CC[C@H](Nc1cc(C(F)F)c(-c2sc(C(=O)N[C@H]3C[C@H](O)C3)nc2C(=O)N2CC(F)(F)C[C@@H]2C)cn1)C(F)(F)F` [Example 449, 4-((S)-4,4-Difluoro-2-methylpyrrolidine-1-carbonyl)-5-(4-(difluoromethyl)-6-(((S)-1,1,1-trifluorobutan-2-yl)amino)pyridin-3-yl)-N-((1R,3S)-3-hydroxycyclobutyl)thiazole-2-carboxamide], in assay [1], the Kd stood at 2.1 nM. Further, in assay [2] (at 3 μM compound concentration), the inhibition at 3 µM was determined as 108%. In assay [2] (setting [4]), the IC50 turned out to be 0.021 µM.

As for `C[C@H]1CCCN1C(=O)c1nc(C(=O)NC2CCS(=O)(=O)CC2)sc1-c1cnc(NC(C)(C)C)cc1C(F)F` [Example 435, 5-[6-(tert-Butylamino)-4-(difluoromethyl)-3-pyridyl]-N-(1,1-dioxothian-4-yl)-4-[(2S)-2-methylpyrrolidine-1-carbonyl]thiazole-2-carboxamide], the Kd in assay [1] amounted to 2.3 nM. In addition, in assay [2] (at 3 μM compound concentration), the inhibition at 3 µM is 105%. Also, the 50% inhibitory concentration (IC50) in assay [2] (setting [4]) turned out to be 0.021 µM.

Consider `CC[C@H](Nc1cc(C(F)F)c(-c2sc(C(=O)N[C@H](C)[C@@H](C)O)nc2C(=O)N2CCC[C@@H]2C)cn1)C(F)(F)F` (relative stereo) [Example 216, 5-(4-(Difluoromethyl)-6-(((S)-1,1,1-trifluorobutan-2-yl)amino)pyridin-3-yl)-N-((2R*,3R*)-3-hydroxybutan-2-yl)-4-((S)-2-methylpyrrolidine-1-carbonyl)thiazole-2-carboxamide], for which the Kd in assay [1] turned out to be 4.1 nM. The “RORγt … % inhibition (value marked *)” value in assay [2] (Conditions B or C) was 96* %. The IC50 in assay [2] (setting [3]) was determined as 0.0095 µM.

As for `C[C@H](Nc1cc(C(F)F)c(-c2sc(C(=O)N[C@H]3CC[C@@H]3O)nc2C(=O)N2C3CCC2CC3)cn1)C(F)(F)F` (relative stereo) [Example 292, 4-((1s,4s)-7-Azabicyclo[2.2.1]heptane-7-carbonyl)-5-(4-(difluoromethyl)-6-(((S)-1,1,1-trifluoropropan-2-yl)amino)pyridin-3-yl)-N-((1S*,2S*)-2-hydroxycyclobutyl)thiazole-2-carboxamide], the Kd in assay [1] turned out to be 6.1 nM. The inhibition at 3 µM in assay [2] (at 3 μM compound concentration) turned out to be 106%. The IC50 in assay [2] (setting [4]) is 0.04 µM.

For `C[C@H]1CCCCN1C(=O)c1nc(C(=O)NCC(C)(C)O)sc1-c1cnc(NC(C)(C)C)cc1C(F)(F)F` [Example 80, (S)-5-(6-(tert-Butylamino)-4-(trifluoromethyl)pyridin-3-yl)-N-(2-hydroxy-2-methylpropyl)-4-(2-methylpiperidine-1-carbonyl)thiazole-2-carboxamide], in assay [1], the Kd was 0.19 nM. Also, the “RORγt … % inhibition (value marked *)” value in assay [2] (Conditions B or C) was 111* %. In assay [2] (setting [3]), the IC50 was 0.0047 µM.

In the case of `C[C@H]1CCCN1C(=O)c1nc(C(=O)NC2CS(=O)(=O)C2)sc1-c1cnc(NC(C)(C)C)cc1C(F)(F)F` [Example 260, 5-[6-(tert-Butylamino)-4-(trifluoromethyl)-3-pyridyl]-N-(1,1-dioxothietan-3-yl)-4-[(2S)-2-methylpyrrolidine-1-carbonyl]thiazole-2-carboxamide], the Kd in assay [1] was 0.7 nM. For the same molecule, the inhibition at 3 µM in assay [2] (at 3 μM compound concentration) was found to be 112%. In addition, the IC50 in assay [2] (setting [4]) was determined as 0.014 µM.

`C[C@H](Nc1cc(C(F)F)c(-c2sc(C(=O)N[C@H](C)C(C)(C)O)nc2C(=O)N2CCC[C@@H]2C)cn1)C(F)(F)F` [Example 200, 5-(4-(Difluoromethyl)-6-(((S)-1,1,1-trifluoropropan-2-yl)amino)pyridine-3-yl)-N—((R)-3-hydroxy-3-methylburan-2-yl)-4-((S)-2-methylpyrrolidine-1-carbonyl)thiazole-2-carboxamide]: in assay [1], the Kd stood at 12 nM. Further, the “RORγt … % inhibition (value marked *)” value in assay [2] (Conditions B or C) is on record as 104* %. Besides, the 50% inhibitory concentration (IC50) in assay [2] (setting [3]) amounted to 0.2 µM.

Consider `C[C@H](Nc1cc(C(F)(F)F)c(-c2sc(C(=O)NCC3(O)CCC3)nc2C(=O)N2CCC[C@@H]2C)cn1)C1CC1` [Example 49, 5-(6-(((S)-1-Cyclopropylethyl)amino)-4-(trifluoromethyl)pyridin-3-yl)-N-((1-hydroxycyclobutyl)methyl)-4-((S)-2-methylpyrrolidine-1-carbonyl)thiazole-2-carboxamide], for which the Kd in assay [1] came out at 3.3 nM. In addition, the “RORγt … % inhibition (value marked *)” value in assay [2] (Conditions B or C) is given as 99* %. Also, in assay [2] (setting [3]), the IC50 came out at 0.0076 µM.

As to `C[C@H](Nc1cc(C(F)(F)F)c(-c2sc(C(=O)NCC(C)(C)O)nc2C(=O)N2CCCC[C@@H]2C)cn1)C1CC1` [Example 39, 5-(6-(((S)-1-Cyclopropylethyl)amino)-4-(trifluoromethyl)pyridin-3-yl)-N-(2-hydroxy-2-methylpropyl)-4-((S)-2-methylpiperidine-1-carbonyl)thiazole-2-carboxamide], the Kd in assay [1] was found to be 0.12 nM. Also, the IC50 in assay [2] (setting [3]) amounted to 0.013 µM. Moreover, the inhibition at 6 µM in assay [2] (read-out: RORγt (FL) Reporter Assay B or C, % inhibition @ 6 μM, Conditions B or C, @ 6 μM) stood at 105%.

For `C[C@H]1CCCN1C(=O)c1nc(C(=O)NCC(C)(C)O)sc1-c1cnc(N[C@@H](C2CC2)C(F)(F)F)cc1C(F)F` [Example 295], in assay [1], the Kd was 2.9 nM. In addition, the inhibition at 3 µM in assay [2] (at 3 μM compound concentration) turned out to be 108%. Moreover, the IC50 in assay [2] (setting [4]) turned out to be 0.014 µM.

In the case of `C[C@H](Nc1cc(C(F)F)c(-c2sc(C(=O)N[C@@H]3CCC[C@H]3O)nc2C(=O)N2CC(F)(F)C[C@@H]2C)cn1)C(F)(F)F` [Example 420, 4-[(2S)-4,4-Difluoro-2-methyl-pyrrolidine-1-carbonyl]-5-[4-(difluoromethyl)-6-[[(1S)-2,2,2-trifluoro-1-methyl-ethyl]amino]-3-pyridyl]-N-[(1R,2R)-2-hydroxycyclopentyl]thiazole-2-carboxamide], the Kd in assay [1] worked out at 0.73 nM. Besides, the inhibition at 3 µM in assay [2] (at 3 μM compound concentration) was found to be 103%. Moreover, the IC50 in assay [2] (setting [4]) was 0.032 µM.
